This note sets out measurements from the supplement of paper PMC11208160.

This data set in a line: recombinant barcode read abundance after kanamycin selection (control-corrected) (log10(CPM+1)); higher = more efficient recombination; sequences stand for … in AGTGCAGAGAAAATCGGCCAGTTTTCTCTGCCTGCAGTCCGCATGCCGT…ATTTATGCAGCGGACTGCCTTTCTCCCAAAGTGATAAACCGGACAGTATCATGGACCGGTTTTCCCGGTAATCCGTATTTGCAAGGTTGGTTTCACT; site = the 11-nt target. Put shortly: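 In E. coli, a pooled library matched targets to IS621 bridge RNA target-binding loops and was introduced alongside a donor plasmid. Cells went onto chloramphenicol/ampicillin/kanamycin with 0.1 mM IPTG or onto chloramphenicol/ampicillin LB agar as control, in duplicate. Recombination efficiency, from recombinant-junction barcodes as counts per million, is averaged and control-corrected. It is reported as log10(CPM+1).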

As for “GTCGCCCCGTGGGTTCTAACCTGTTGCTAAG [GTCGCCCCTTA_LTGcore_CG_RTGcore_CT] (site GTCGCCCCTTA) (LTG core: CG, RTG core: CT)”, the “recombinant barcode read abundance (log10)” value came to 0.325.
Under “GTCGCCCCTTGGGTTCTAACCTGTTGCTAGC [GTCGCCCCTTA_LTGcore_CT_RTGcore_GC] (site GTCGCCCCTTA) (LTG core: CT, RTG core: GC)” stands 0.805; under “GTCGCCCGATGGGTTCTAACCTGTTGCTAAG [GTCGCCCCTTA_LTGcore_GA_RTGcore_CT] (site GTCGCCCCTTA) (LTG core: GA, RTG core: CT)”, 0.
Consider “GTCGCCCGATGGGTTCTAACCTGTTGCTATC [GTCGCCCCTTA_LTGcore_GA_RTGcore_GA] (site GTCGCCCCTTA) (LTG core: GA, RTG core: GA)”, for which the “recombinant barcode read abundance (log10)” value was 0.103.
Turning to “GTCGCCCGGTGGGTTCTAACCTGTTGCTACC [GTCGCCCCTTA_LTGcore_GG_RTGcore_GG] (site GTCGCCCCTTA) (LTG core: GG, RTG core: GG)”, the “recombinant barcode read abundance (log10)” value stood at 0.458.
For the sequence “GTCGCCCGTTGGGTTCTAACCTGTTGCTAAG [GTCGCCCCTTA_LTGcore_GT_RTGcore_CT] (site GTCGCCCCTTA) (LTG core: GT, RTG core: CT)”, the “recombinant barcode read abundance (log10)” value is 0.431.
Next, “GTCGCCCTCTGGGTTCTAACCTGTTGCTAGA [GTCGCCCCTTA_LTGcore_TC_RTGcore_TC] (site GTCGCCCCTTA) (LTG core: TC, RTG core: TC)”: 0.236; “TAAGAATAATGGGTTCTAACCTGTTGCCTTT [TAAGAATCTAG_LTGcore_AA_RTGcore_AA] (site TAAGAATCTAG) (LTG core: AA, RTG core: AA)”: 1.48.
For “TAAGAATATTGGGTTCTAACCTGTTGCCTAT [TAAGAATCTAG_LTGcore_AT_RTGcore_AT] (site TAAGAATCTAG) (LTG core: AT, RTG core: AT)”, the “recombinant barcode read abundance (log10)” value is 0.141.
For the sequence “TAAGAATCCTGGGTTCTAACCTGTTGCCTAG [TAAGAATCTAG_LTGcore_CC_RTGcore_CT] (site TAAGAATCTAG) (LTG core: CC, RTG core: CT)”, the “recombinant barcode read abundance (log10)” value is 0.193.
As for “TAAGAATCTTGGGTTCTAACCTGTTGCCTCG [TAAGAATCTAG_LTGcore_CT_RTGcore_CG] (site TAAGAATCTAG) (LTG core: CT, RTG core: CG)”, the “recombinant barcode read abundance (log10)” value stood at 1.61.
For the sequence “TAAGAATCTTGGGTTCTAACCTGTTGCCTCT [TAAGAATCTAG_LTGcore_CT_RTGcore_AG] (site TAAGAATCTAG) (LTG core: CT, RTG core: AG)”, the “recombinant barcode read abundance (log10)” value is 0.422.
Under “TAAGAATCTTGGGTTCTAACCTGTTGCCTGA [TAAGAATCTAG_LTGcore_CT_RTGcore_TC] (site TAAGAATCTAG) (LTG core: CT, RTG core: TC)” stands 0.145; under “TAAGAATCTTGGGTTCTAACCTGTTGCCTTT [TAAGAATCTAG_LTGcore_CT_RTGcore_AA] (site TAAGAATCTAG) (LTG core: CT, RTG core: AA)”, 0.421.
For “TAGAGGGAATGGGTTCTAACCTGTTGCGGTT [TAGAGGGCTCC_LTGcore_AA_RTGcore_AA] (site TAGAGGGCTCC) (LTG core: AA, RTG core: AA)”, the “recombinant barcode read abundance (log10)” value was found to be 0.0221.
Under “TAGAGGGACTGGGTTCTAACCTGTTGCGGGT [TAGAGGGCTCC_LTGcore_AC_RTGcore_AC] (site TAGAGGGCTCC) (LTG core: AC, RTG core: AC)” stands 0.247; under “TAGAGGGCATGGGTTCTAACCTGTTGCGGTG [TAGAGGGCTCC_LTGcore_CA_RTGcore_CA] (site TAGAGGGCTCC) (LTG core: CA, RTG core: CA)”, 0.23; under “TAGAGGGCTTGGGTTCTAACCTGTTGCGGAG [TAGAGGGCTCC_LTGcore_CT_RTGcore_CT] (site TAGAGGGCTCC) (LTG core: CT, RTG core: CT)”, 2.86.
For the sequence “TAGAGGGCTTGGGTTCTAACCTGTTGCGGCC [TAGAGGGCTCC_LTGcore_CT_RTGcore_GG] (site TAGAGGGCTCC) (LTG core: CT, RTG core: GG)”, the “recombinant barcode read abundance (log10)” value is 0.0898.
With “TAGAGGGCTTGGGTTCTAACCTGTTGCGGGA [TAGAGGGCTCC_LTGcore_CT_RTGcore_TC] (site TAGAGGGCTCC) (LTG core: CT, RTG core: TC)”, the “recombinant barcode read abundance (log10)” value is 0.378.
Take “TAGAGGGCTTGGGTTCTAACCTGTTGCGGGT [TAGAGGGCTCC_LTGcore_CT_RTGcore_AC] (site TAGAGGGCTCC) (LTG core: CT, RTG core: AC)”: the “recombinant barcode read abundance (log10)” value stood at 0.122.
In the case of “TAGAGGGCTTGGGTTCTAACCTGTTGCGGTC [TAGAGGGCTCC_LTGcore_CT_RTGcore_GA] (site TAGAGGGCTCC) (LTG core: CT, RTG core: GA)”, the “recombinant barcode read abundance (log10)” value worked out at 0.158.
Under “TAGAGGGCTTGGGTTCTAACCTGTTGCGGTT [TAGAGGGCTCC_LTGcore_CT_RTGcore_AA] (site TAGAGGGCTCC) (LTG core: CT, RTG core: AA)” stands 0.0916; under “TAGAGGGGATGGGTTCTAACCTGTTGCGGAG [TAGAGGGCTCC_LTGcore_GA_RTGcore_CT] (site TAGAGGGCTCC) (LTG core: GA, RTG core: CT)”, 0.441.
Turning to “TCGCGACCATGGGTTCTAACCTGTTGCCGAG [TCGCGACCTCG_LTGcore_CA_RTGcore_CT] (site TCGCGACCTCG) (LTG core: CA, RTG core: CT)”, the “recombinant barcode read abundance (log10)” value turned out to be 0.0739.
Turning to “TCGCGACCTTGGGTTCTAACCTGTTGCCGCG [TCGCGACCTCG_LTGcore_CT_RTGcore_CG] (site TCGCGACCTCG) (LTG core: CT, RTG core: CG)”, the “recombinant barcode read abundance (log10)” value was 0.436.
For “TCGCGACCTTGGGTTCTAACCTGTTGCCGGA [TCGCGACCTCG_LTGcore_CT_RTGcore_TC] (site TCGCGACCTCG) (LTG core: CT, RTG core: TC)”, the “recombinant barcode read abundance (log10)” value came to 0.26.
Consider “TCGCGACCTTGGGTTCTAACCTGTTGCCGTA [TCGCGACCTCG_LTGcore_CT_RTGcore_TA] (site TCGCGACCTCG) (LTG core: CT, RTG core: TA)”, for which the “recombinant barcode read abundance (log10)” value is 0.0883.
Regarding “TCGCGACTCTGGGTTCTAACCTGTTGCCGAG [TCGCGACCTCG_LTGcore_TC_RTGcore_CT] (site TCGCGACCTCG) (LTG core: TC, RTG core: CT)”, the “recombinant barcode read abundance (log10)” value was found to be 0.0502.
Consider “TCGCGACTCTGGGTTCTAACCTGTTGCCGGA [TCGCGACCTCG_LTGcore_TC_RTGcore_TC] (site TCGCGACCTCG) (LTG core: TC, RTG core: TC)”, for which the “recombinant barcode read abundance (log10)” value was determined as 0.0969.
With “TCGCGACTTTGGGTTCTAACCTGTTGCCGAA [TCGCGACCTCG_LTGcore_TT_RTGcore_TT] (site TCGCGACCTCG) (LTG core: TT, RTG core: TT)”, the “recombinant barcode read abundance (log10)” value worked out at 0.
Turning to “TCTACCCAATGGGTTCTAACCTGTTGCTGAG [TCTACCCCTCA_LTGcore_AA_RTGcore_CT] (site TCTACCCCTCA) (LTG core: AA, RTG core: CT)”, the “recombinant barcode read abundance (log10)” value was 0.0508.
Consider “TCTACCCACTGGGTTCTAACCTGTTGCTGAG [TCTACCCCTCA_LTGcore_AC_RTGcore_CT] (site TCTACCCCTCA) (LTG core: AC, RTG core: CT)”, for which the “recombinant barcode read abundance (log10)” value came out at 0.0555.
Under “TCTACCCAGTGGGTTCTAACCTGTTGCTGAG [TCTACCCCTCA_LTGcore_AG_RTGcore_CT] (site TCTACCCCTCA) (LTG core: AG, RTG core: CT)” stands 0.467.
In the case of “TCTACCCCATGGGTTCTAACCTGTTGCTGAG [TCTACCCCTCA_LTGcore_CA_RTGcore_CT] (site TCTACCCCTCA) (LTG core: CA, RTG core: CT)”, the “recombinant barcode read abundance (log10)” value amounted to 0.806.
As for “TCTACCCCTTGGGTTCTAACCTGTTGCTGCC [TCTACCCCTCA_LTGcore_CT_RTGcore_GG] (site TCTACCCCTCA) (LTG core: CT, RTG core: GG)”, the “recombinant barcode read abundance (log10)” value was 0.0951.
With “TCTACCCGATGGGTTCTAACCTGTTGCTGAG [TCTACCCCTCA_LTGcore_GA_RTGcore_CT] (site TCTACCCCTCA) (LTG core: GA, RTG core: CT)”, the “recombinant barcode read abundance (log10)” value stood at 0.208.
On to “TCTACCCGGTGGGTTCTAACCTGTTGCTGCC [TCTACCCCTCA_LTGcore_GG_RTGcore_GG] (site TCTACCCCTCA) (LTG core: GG, RTG core: GG)”, for which the “recombinant barcode read abundance (log10)” value amounted to 0.108.
Consider “TCTACCCTCTGGGTTCTAACCTGTTGCTGAG [TCTACCCCTCA_LTGcore_TC_RTGcore_CT] (site TCTACCCCTCA) (LTG core: TC, RTG core: CT)”, for which the “recombinant barcode read abundance (log10)” value worked out at 0.0968.
For “TCTACCCTCTGGGTTCTAACCTGTTGCTGGA [TCTACCCCTCA_LTGcore_TC_RTGcore_TC] (site TCTACCCCTCA) (LTG core: TC, RTG core: TC)”, the “recombinant barcode read abundance (log10)” value was 0.032.
Under “TGATACCACTGGGTTCTAACCTGTTGCGTGT [TGATACCCTAC_LTGcore_AC_RTGcore_AC] (site TGATACCCTAC) (LTG core: AC, RTG core: AC)” stands 0.136; under “TGATACCCATGGGTTCTAACCTGTTGCGTAG [TGATACCCTAC_LTGcore_CA_RTGcore_CT] (site TGATACCCTAC) (LTG core: CA, RTG core: CT)”, 0.328.
Under “TGATACCCCTGGGTTCTAACCTGTTGCGTAG [TGATACCCTAC_LTGcore_CC_RTGcore_CT] (site TGATACCCTAC) (LTG core: CC, RTG core: CT)” stands 0.566.
